One data set deals with HeLa. Description: MTT cytotoxicity assay, HeLa. The format is cell-based, human. Particulars: for IC50: 24 h incubation; for SF (selectivity factor) HeLa: ratio of IC50 for HEK-293 to IC50 for HeLa. How it is done: (§1) Cytotoxicity studies were performed for all the synthesized quinoxaline compounds (7a–7g) using standard 3-(4,5-dimethylthiazol-2-yl)-2,5-diphenyltetrazolium bromide (MTT) assay beside a panel of cancer cell lines such as human epithelioid cervix carcinoma (HeLa), human colorectal adenocarcinoma cell line (Caco-2) and one normal human embryonic kidney cells (HEK-293) in triplicates (Table 3). […] It is noteworthy to mention that Compound 7a and 7g presented best cytoselectivity in HeLa and Caco-2 cell lines respectively. […]
(§2) In vitro cytotoxic activities (MTT assay):
(§3) The basic detection of cytotoxicity of anticancer compounds in vitro is MTT assay. The MTT proliferation assay is based on the reduction of the yellow MTT tetrazolium salt (3-[4,5-dimethylthiazol-2-yl]-2,5diphenyltetrazolium bromide) by mitochondrial dehydrogenases to form a purple MTT formazan crystals in viable cells. Synthesized compounds (7a-g) were prior dissolved in 0.1% DMSO and then serial dilution with medium and used in the experiment. Three different types of cancer cell lines were used in this experiment i.e., human Epitheloid Cervix Carcinoma (HeLa), human colon cancer cell line (Caco-2) and one normal kidney cell (HEK-293) were used in the assay. The cells were harvested at the log phase and it is cell counted using haemocytometer. Approximately 1 × 10^3 cells per well were seeded using all the cell lines. They were cultured in 100 μL of a DMEM media in 96-well plates and incubated at 37 °C for 24 hours under a 5% CO2 atmosphere. The cells were then washed with 1X PBS buffer and fresh media was added to the cells. The cells were then treated with different concentrations of the drugs (0.65-150 µM) in the volume of […] /well. Cisplatin has been used as a standard positive control drug. The control wells contains the same cell count of 1 × 10^3 cells per well of 100 μL medium containing 0.1% DMSO. After 24 h (for HeLa cell and HEK-293) and 72 h (for Caco-2), the medium was discarded and it is washed with 1X PBS and it was incubated with 100 µl of MTT reagent (1 mg/ml) for 4 h at 37°C.
(§4) Then the 96 well plate was placed on the shaker for 10 min and subsequently the absorbance was recorded by the ELISA reader at λ = 490 nm. The experiments were performed in […]
(§5) triplicate. […]
In general terms: Formazan colour is commonly taken as a measure of viable cells.

The subject of the next data set is HEK-293. In words: MTT cytotoxicity assay, HEK-293 normal cells. The format is cell-based, human. Particulars: 24 h incubation. The protocol: as §1, §2, §3, §4, §5
Data set [1] in a line: Fluorescence quantum yield in water. In kind it is physicochemical. Particulars: 298 K, quinine sulphate as standard. How it is done: To know the absorption and emission behaviour of these synthesized compounds (7a–g), a standard concentration (3 × 10^−6 mol l^−1) in water has been used. In UV-vis spectra, λmax of all these compounds are observed at 320–330 nm due to π–π* transition (Fig. S1a ^†). The corresponding emission peaks are observed at 400–500 nm (Fig. S1b ^†). The emission of quantum yield (Φ) was calculated for all of the compounds (7a–g) using eqn (1) (Table S1 ^†). […]
2.6.2. Fluorescence study:
To know the emission property of all the synthesized complexes (7a-g), an initial investigation was performed using spectrofluorometric method in water by using absorption maximum as their excitation energy. Fluorescence quantum yield (Ф) of all the prepared compounds performed in water solution were calculated by employing the comparative William's method which involves the use of well-characterized standard with the known quantum yield value. Quinine sulphate was used as reference fluorophore excited at 350 nm and emission at 452 nm, quantum yield (ФR) = 0.50 in 1N H2SO4. The gradients of the plots are proportional to the quantum yield (Ф) of the studied system. The data obtained and quantum yield value calculated according to the equation (2): […]
Where, φ = Quantum yield, I = Peak Area, OD = absorbance at λmax, η = Refractive index of solvent and reference. Here, we have used Quinine Sulphate as a standard for calculating emission of quantum yield. […]

Another data set relates to Caco-2. In words: MTT cytotoxicity assay, Caco-2. In kind it is cell-based, human. Particulars: Homo sapiens, Caco-2; 72 h incubation.
Description: as §2
as §3, with “/well.” for “/well. Cisplatin has been used as a standard positive control drug. The control wells contains the same cell count of 1 × 10^3 cells per well of 100 μL medium containing 0.1% DMSO. After 24 h (for HeLa cell and HEK-293) and 72 h (for Caco-2), the medium was discarded and it is washed with 1X PBS and it was incubated with 100 µl of MTT reagent (1 mg/ml) for 4 h at 37°C.”
(§6) The control wells contains the same cell count of 1 × 10^3 cells per well of 100 μL medium containing 0.1% DMSO. After 24 h (for HeLa cell and HEK-293) and 72 h (for Caco-2), the medium was discarded and it is washed with 1X PBS and it was incubated with 100 µl of MTT reagent (1 mg/ml) for 4 h at 37°C.
as §4, §5

The nature of data set [2]: MTT cytotoxicity assay, Caco-2. The format is cell-based, human. Particulars: human, Caco-2, ratio of IC50 for HEK-293 to IC50 for Caco-2; read-out: SF (selectivity factor) Caco-2.
Description: as §2
as §3, with “/well.” for “/well. Cisplatin has been used as a standard positive control drug. The control wells contains the same cell count of 1 × 10^3 cells per well of 100 μL medium containing 0.1% DMSO. After 24 h (for HeLa cell and HEK-293) and 72 h (for Caco-2), the medium was discarded and it is washed with 1X PBS and it was incubated with 100 µl of MTT reagent (1 mg/ml) for 4 h at 37°C.”
as §6, §4, §5

A word on the IC50: it is the concentration that gives 50% inhibition. Broadly, the melting point is the temperature, or range, at which the solid turns liquid. As for `c1ccc(-c2nc3ccccc3s2)c(OCc2nc3ccccc3nc2COc2ccccc2-c2nc3ccccc3s2)c1` [Compound 7a], the melting point lay within 130 to 135 °C. Also, the midpoint of inhibition in the data set with HeLa (Homo sapiens, HeLa), the IC50, lay at 73.1 ± 1.7 µM. In the data set with HeLa, the “SF (selectivity factor) HeLa” value was determined as 1.6. The IC50 with HEK-293 (Homo sapiens, HEK293) was 120 ± 0.9 µM. In addition, in data set [1], the “Φ, emission quantum yield” value is on record as 0.006. For the same compound, it took 69.8 ± 0.8 µM to reach half-maximal inhibition in the data set on Caco-2 (IC50). Moreover, in data set [2], the selectivity ratio is 1.71.

`Brc1ccc2nc(COc3ccccc3-c3nc4ccccc4s3)c(COc3ccccc3-c3nc4ccccc4s3)nc2c1` [Compound 7b]: the melting point came to 145 °C. For the same compound, the IC50 with HeLa (Homo sapiens, HeLa) is more than 100 µM. The “SF (selectivity factor) HeLa” value in the data set on HeLa is recorded as less than 1.4. Also, the IC50 in the data set on HEK-293 (Homo sapiens, HEK293) came out at 140 ± 1.4 µM. Further, in data set [1], the “Φ, emission quantum yield” value is recorded as 0.017. Besides, the IC50 in the data set with Caco-2 was found to be 109 ± 0.8 µM. Also, the selectivity ratio in data set [2] was 1.28.

Turning to `N.N.[Cl][Pt][Cl]` [Cisplatin, reference compound], the IC50 in the data set with HeLa is 14.5 ± 0.8 µM; with HEK-293 it was 50 ± 1.2 µM.

Turning to `Fc1cc2nc(COc3ccccc3-c3nc4ccccc4s3)c(COc3ccccc3-c3nc4ccccc4s3)nc2cc1Cl` [Compound 7f], the IC50 is 44.3 ± 0.3 µM in the data set on HeLa (Homo sapiens, HeLa); more than 200 µM in the data set with HEK-293 (Homo sapiens, HEK293); more than 100 µM in the data set with Caco-2. Further, in the data set with HeLa, the “SF (selectivity factor) HeLa” value is given as more than 4.5. Further, the “Φ, emission quantum yield” value in data set [1] came to 0.014. In data set [2], the selectivity ratio was more than 2.

For the compound `Fc1ccc2nc(COc3ccccc3-c3nc4ccccc4s3)c(COc3ccccc3-c3nc4ccccc4s3)nc2c1` [Compound 7d], the melting point was 135 to 139 °C. Further, in the data set with HeLa (Homo sapiens, HeLa), 117 ± 5.4 µM corresponded to half-maximal inhibition (IC50). Moreover, the “SF (selectivity factor) HeLa” value with HeLa is on record as more than 1.7. Besides, in the data set with HEK-293 (Homo sapiens, HEK293), the IC50 is more than 200 µM. For the same compound, the “Φ, emission quantum yield” value in data set [1] is on record as 0.04. The compound further showed an IC50 in the data set with Caco-2 of 92 ± 4.9 µM. Further, the selectivity ratio in data set [2] is more than 2.17.

Compound `Clc1ccc2nc(COc3ccccc3-c3nc4ccccc4s3)c(COc3ccccc3-c3nc4ccccc4s3)nc2c1` [Compound 7c] yielded a melting point of 150 °C. Besides, in the data set with HeLa (Homo sapiens, HeLa), the 50% inhibitory concentration (IC50) amounted to 68.61 ± 0.2 µM. The “SF (selectivity factor) HeLa” value in the data set on HeLa was 2.3. In addition, the midpoint of inhibition in the data set on HEK-293 (Homo sapiens, HEK293), the IC50, lay at 160 ± 2.1 µM. Moreover, the “Φ, emission quantum yield” value in data set [1] was 0.017. The IC50 in the data set on Caco-2 is 75 ± 3.5 µM. For the same compound, in data set [2], the selectivity ratio worked out at 2.13.

The values are drawn from publication PMC9061853, “Luminescent bis(benzo[d]thiazolyl)quinoxaline: facile synthesis, nucleic acid and protein BSA interaction, live-cell imaging, biopharmaceutical research and cancer theranostic application” (RSC Advances, 2019).
